This passage reports IC50 results from US20230365589A1, “NOVEL AMINE DERIVATIVES” (Sumitomo Pharma Co., Ltd., priority 2020, published 2023).

Holding throughout (format): biochemical
One experiment has as its target T1, DYRK2 (Homo sapiens, UniProt Q92630).
T1 construct: purchased Carna Biosciences, Inc. 04-132
T1 sequence (Q92630 74-601 limits assumed): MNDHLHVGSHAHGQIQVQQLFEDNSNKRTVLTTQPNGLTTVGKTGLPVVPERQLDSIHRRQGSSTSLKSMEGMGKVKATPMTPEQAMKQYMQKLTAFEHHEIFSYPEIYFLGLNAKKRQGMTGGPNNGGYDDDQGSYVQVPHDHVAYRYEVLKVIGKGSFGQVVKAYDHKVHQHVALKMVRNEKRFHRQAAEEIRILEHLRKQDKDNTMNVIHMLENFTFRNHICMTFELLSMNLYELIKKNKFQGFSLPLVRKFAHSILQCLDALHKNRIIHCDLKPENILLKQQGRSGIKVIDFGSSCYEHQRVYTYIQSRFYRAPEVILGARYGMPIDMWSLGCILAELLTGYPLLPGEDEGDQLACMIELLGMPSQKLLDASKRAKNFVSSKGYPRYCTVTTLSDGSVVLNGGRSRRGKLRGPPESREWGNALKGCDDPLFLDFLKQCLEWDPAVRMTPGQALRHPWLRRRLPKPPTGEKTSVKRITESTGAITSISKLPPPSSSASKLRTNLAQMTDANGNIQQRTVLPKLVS
Description: Inhibition test on activity of DYRK family, mobility shift assay (MSA): DYRK2. As to the method: (§1) [Inhibition Test on Activity of DYRK Family (DYRK1A, DYRK1B, DYRK2, and DYRK3)]
(§2) The kinase activity was measured by mobility shift assay (MSA) method using QuickScout Screening Assist™ MSA (commercially available kit manufactured by Carna Biosciences, Inc.). The substrate of the kinase reaction used was an FITC-labeled DYRKtide peptide included in the kit. An assay buffer [20 mM HEPES, 0.01% Triton X-100™, 2 mM dithiothreitol, pH 7.5]was used to create a substrate mixture solution with a substrate (4 μM), MgCl2(20 mM), and ATP (DYRK1A: 100 μM; DYRK1B: 200 μM; DYRK2: 40 μM; and DYRK3: 20 μM). In addition, kinases (DYRK1A: manufactured by Carna Biosciences, Inc., Cat. No. 04-130; DYRK1B: manufactured by Carna Biosciences, Inc., Cat. No. 04-131; DYRK2; manufactured by Carna Biosciences, Inc., Cat. No. 04-132; and DYRK3; manufactured by Carna Biosciences, Inc., Cat. No. 04-133) were diluted with the assay buffer to prepare enzyme solutions (DYRK1A: 0.2 ng/μL; DYRK1B: 0.08 ng/μL; DYRK2: 0.04 ng/μL; and DYRK3: 0.25 ng/μL). The 10 mM solution of the test compound in DMSO was further diluted with DMSO to 10 levels of the concentration (0.00003 mM, 0.0001 mM, 0.0003 mM, 0.001 mM, 0.003 mM, 0.01 mM, 0.03 mM, 0.1 mM, 0.3 mM, and 1 mM), each of which was subjected to 25-fold dilution with the assay buffer to obtain a drug solution (4% DMSO solution). 5 μL of the drug solution or a control solution (4% DMSO-assay buffer), 5 μL of the substrate mixture solution, and 10 μL of the enzyme solution were mixed in the wells of a polypropylene 384-well plate and allowed to react at room temperature for 1 hour, and then the reaction was quenched by adding 60 μL of the termination buffer included in the kit. Subsequently, the quantities of the substrates (S) and the phosphorylated substrate (P) in the reaction solution were measured using LabChip EZ Reader II system (manufactured by Caliper Life Sciences) according to the protocol of the assay kit.
(§3) The heights of the peaks of the “substrate” and the “phosphorylated substrate” were expressed as S and P, respectively, and a blank containing the assay buffer instead of the enzyme solution was also measured.
(§4) The inhibition rate (%) of the test compound was calculated according to the following equation:
(§5) Inhibition rate (%)=(1−(C−A)/(B−A))×100 • wherein, A, B, and C represent P/(P+S) of the blank well, P/(P+S) of the control solution well, and P/(P+S) of the compound-containing well, respectively.
(§6) The IC50 value was calculated via a regression analysis of the inhibition rate and the test compound concentration (logarithmic value).
(§7) The inhibiting activities of representative compounds of the present invention are shown against DYRK1A, DYRK1B, DYRK2, and DYRK3 in Tables.

The target in another experiment is T2, DYRK3 (Homo sapiens, UniProt O43781).
T2 construct: purchased Carna Biosciences, Inc. 04-133
T2 sequence (O43781 1-568 isoform O43781-2): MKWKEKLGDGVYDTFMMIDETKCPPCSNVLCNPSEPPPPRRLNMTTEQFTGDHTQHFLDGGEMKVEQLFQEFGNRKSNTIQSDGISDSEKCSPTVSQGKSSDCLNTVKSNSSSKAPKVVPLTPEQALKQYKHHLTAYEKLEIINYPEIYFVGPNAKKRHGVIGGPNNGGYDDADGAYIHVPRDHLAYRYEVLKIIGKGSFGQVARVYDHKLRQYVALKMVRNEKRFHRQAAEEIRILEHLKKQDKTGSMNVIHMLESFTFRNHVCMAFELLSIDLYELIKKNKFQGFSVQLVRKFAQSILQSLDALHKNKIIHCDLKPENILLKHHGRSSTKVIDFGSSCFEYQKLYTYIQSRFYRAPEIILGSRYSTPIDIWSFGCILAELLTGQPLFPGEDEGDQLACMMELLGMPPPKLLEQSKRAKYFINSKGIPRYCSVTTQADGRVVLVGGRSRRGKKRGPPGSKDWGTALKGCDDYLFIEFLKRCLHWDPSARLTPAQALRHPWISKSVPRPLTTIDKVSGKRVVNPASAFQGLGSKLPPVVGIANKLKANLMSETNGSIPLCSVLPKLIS
Description: Inhibition test on activity of DYRK family, mobility shift assay (MSA): DYRK3. Conditions: MSA, FITC-labeled DYRKtide peptide, ATP 20 μM; read-out: Inhibitory activity DYRK 3 (IC50 class). As to the method:
as §1, §2, §3, §4, §5, §6, §7

The target of the next experiment is T3, DYRK1A (Homo sapiens, UniProt Q13627).
T3 construct: purchased Carna Biosciences, Inc. 04-130
Nature of the experiment: Inhibition test on activity of DYRK family, mobility shift assay (MSA): DYRK1A. The protocol:
as §1, §2, §3, §4, §5, §6

Setting [1] is: MSA, FITC-labeled DYRKtide peptide, ATP 40 μM, read-out: Inhibitory activity DYRK 2 (IC50 class).
Setting [2] is: MSA, FITC-labeled DYRKtide peptide, ATP 100 μM, read-out: Inhibitory activity DYRK 1A (IC50 class).

Structures are written as SMILES. Like-named read-outs stand apart in the source and are kept apart here. Bounds are passed on as bounds.

On to `O=C1N[C@H]2CCN(C3COC3)C[C@H]2N1c1nc2c3c(ccc2s1)OCC3` (racemic) [Example 71, rac-(3aR,7aS)-3-(7,8-dihydrofuro[3,2-e][1,3]benzothiazol-2-yl)-5-(oxetan-3-yl)octahydro-2H-imidazo[4,5-c]pyridin-2-one], for which the IC50 at DYRK2 (setting [1]) and on DYRK3 was at least 1000 nM each time.

As to `O=C1N[C@H]2CCN(C3CCC3)C[C@H]2N1c1nc2c3c(ccc2s1)OCC3` (racemic) [Example 72, rac-(3aR,7aS)-5-cyclobutyl-3-(7,8-dihydrofuro[3,2-e][1,3]benzothiazol-2-yl)octahydro-2H-imidazo[4,5-c]pyridin-2-one], the IC50 is 10 to 100 nM on DYRK1A (setting [2]), at least 1000 nM at DYRK2 (setting [1]) and at least 1000 nM on DYRK3.

On to `O=C1N[C@H]2CCCN(C3COC3)C[C@H]2N1c1nc2c3c(ccc2s1)OCC3` (racemic) [Example 73, rac-(3aR,8aS)-3-(7,8-dihydrofuro[3,2-e][1,3]benzothiazol-2-yl)-5-(oxetan-3-yl)octahydroimidazo[4,5-c]azepin-2(1H)-one], for which the IC50 was under 10 nM on DYRK1A (setting [2]), 100 to 1000 nM on DYRK2 (setting [1]) and at least 1000 nM at DYRK3.

On to `CN1CC[C@@H]2NC(=O)N(c3nc4c5c(ccc4s3)OCCO5)[C@@H]2C1` (racemic) [Example 76, rac-(3aR,7aS)-3-(7,8-dihydro[1,4]dioxino[2,3-e][1,3]benzothiazol-2-yl)-5-methyloctahydro-2H-imidazo[4,5-c]pyridin-2-one], for which the IC50 is 10 to 100 nM at DYRK1A (setting [2]), at least 1000 nM on DYRK2 (setting [1]) and at least 1000 nM at DYRK3.

Take `CN1CC[C@@H]2[C@H](C1)NC(=O)N2c1nc2c3c(ccc2s1)OCCO3` (racemic) [Example 77, rac-(3aR,7aS)-1-(7,8-dihydro[1,4]dioxino[2,3-e][1,3]benzothiazol-2-yl)-5-methyloctahydro-2H-imidazo[4,5-c]pyridin-2-one]: the values for the IC50 at DYRK1A (setting [2]), on DYRK2 (setting [1]) and on DYRK3 were 10 to 100 nM, at least 1000 nM and 100 to 1000 nM, respectively.

Consider `CN1CC[C@@H]2[C@H](C1)NC(=O)N2c1nc2c3c(ccc2s1)OCO3` (racemic) [Example 78, rac-(3aR,7aS)-1-(2H-[1,3]dioxolo[4,5-e][1,3]benzothiazol-7-yl)-5-methyloctahydro-2H-imidazo[4,5-c]pyridin-2-one], for which the results for the IC50 on DYRK1A (setting [2]), at DYRK2 (setting [1]) and on DYRK3 were 10 to 100 nM, at least 1000 nM and 100 to 1000 nM, respectively.

Consider `CN1CC[C@@H]2NC(=O)N(c3nc4c5c(ccc4s3)OCO5)[C@@H]2C1` (racemic) [Example 79, rac-(3aR,7aS)-3-(2H-[1,3]dioxolo[4,5-e][1,3]benzothiazol-7-yl)-5-methyloctahydro-2H-imidazo[4,5-c]pyridin-2-one], for which the IC50 at DYRK1A (setting [2]) was 10 to 100 nM; on DYRK2 (setting [1]), at least 1000 nM; at DYRK3 it was at least 1000 nM.

For `O=C1N[C@H]2CCN(C3COC3)C[C@H]2N1c1nc2c3c(ccc2s1)OCCO3` (racemic) [Example 80, rac-(3aR,7aS)-3-(7,8-dihydro[1,4]dioxino[2,3-e][1,3]benzothiazol-2-yl)-5-(oxetan-3-yl)octahydro-2H-imidazo[4,5-c]pyridin-2-one], the figures for the IC50 on DYRK1A (setting [2]), at DYRK2 (setting [1]) and at DYRK3 were 10 to 100 nM, at least 1000 nM and at least 1000 nM, respectively.

In the case of `O=C1N[C@H]2CCN(C3COC3)C[C@H]2N1c1nc2c3c(ccc2s1)OCO3` (racemic) [Example 81, rac-(3aR,7aS)-3-(2H-[1,3]dioxolo[4,5-e][1,3]benzothiazol-7-yl)-5-(oxetan-3-yl)octahydro-2H-imidazo[4,5-c]pyridin-2-one], the IC50 is 10 to 100 nM at DYRK1A (setting [2]), at least 1000 nM at DYRK2 (setting [1]) and at least 1000 nM on DYRK3.

Consider `CN1CCC[C@@H]2NC(=O)N(c3nc4c5c(ccc4s3)OCO5)[C@@H]2C1` (racemic) [Example 85, rac-(3aR,8aS)-3-(2H-[1,3]dioxolo[4,5-e][1,3]benzothiazol-7-yl)-5-methyloctahydroimidazo[4,5-c]azepin-2(1H)-one], for which the IC50 at DYRK1A (setting [2]) was 10 to 100 nM; on DYRK2 (setting [1]) it was at least 1000 nM; at DYRK3, at least 1000 nM.

Consider `O=C1N[C@H]2CCCN(C3COC3)C[C@H]2N1c1nc2c3c(ccc2s1)OCO3` (racemic) [Example 86, rac-(3aR,8aS)-3-(2H-[1,3]dioxolo[4,5-e][1,3]benzothiazol-7-yl)-5-(oxetan-3-yl)octahydroimidazo[4,5-c]azepin-2(1H)-one], for which the IC50 was 10 to 100 nM on DYRK1A (setting [2]), at least 1000 nM at DYRK2 (setting [1]) and at least 1000 nM on DYRK3.

As for `C#CCN1CC[C@H]2NC(=O)N(c3nc4c5c(ccc4s3)OCC5)[C@H]2C1` (single isomer, unassigned) [Example 113], the IC50 is 100 to 1000 nM on DYRK1A (read-out: Inhibitory activity DYRK 1A) and at least 1000 nM at DYRK2 (read-out: Inhibitory activity DYRK 2).

`O=C1N[C@H]2CCN(C3COC3)C[C@@H]2N1c1nc2c3c(ccc2s1)OCC3` [Example 19, (3aS,7aS)-3-(7,8-dihydrofuro[3,2-e][1,3]benzothiazol-2-yl)-5-(oxetan-3-yl)octahydro-2H-imidazo[4,5-c]pyridin-2-one]: the IC50 on DYRK2 (setting [1]) and at DYRK3 was 100 to 1000 nM in each case.

With `O=C1N[C@H]2COCC[C@H]2N1c1nc2c3c(ccc2s1)OCCO3` [Example 37, (3aR,7aR)-1-(7,8-dihydro[1,4]dioxino[2,3-e][1,3]benzothiazol-2-yl)hexahydropyrano[3,4-d]imidazol-2(3H)-one], the IC50 at DYRK2 (setting [1]) and at DYRK3 was 100 to 1000 nM throughout.

Turning to `O=C1N[C@H]2CNCC[C@H]2N1c1nc2c3c(ccc2s1)OCO3` [Example 52], the IC50 at DYRK2 (setting [1]) and at DYRK3 was 100 to 1000 nM each time.

`CN1CC[C@@H]2NC(=O)N(c3nc4c5c(ccc4s3)OCC5)[C@@H]2C12CC2` [Example 69]: the IC50 at DYRK2 (setting [1]) and at DYRK3 was at least 1000 nM in each case.

`CN1CC[C@H]2NC(=O)N(c3nc4c5c(ccc4s3)OCC5)[C@@H]2C12CC2` [Example 70]: the IC50 at DYRK2 (setting [1]) was at least 1000 nM; at DYRK3, 100 to 1000 nM.
